The values below are quoted from earlier work in patent US20240366636A1, “ORAL CANNABINOID PHARMACEUTICAL COMPOSITIONS AND METHODS OF TREATING INFLAMMATORY GASTROINTESTINAL DISORDERS” (Curio IP, LLC, priority 2022, published 2024).

The half-life is the time needed for the level to fall by half in the phase considered.

The target of one data set is cannabinoid CB2 receptor (Homo sapiens, UniProt P34972).
The conditions of data set [1]: humans.
Data set [2] concerns DNBS-induced intestinal inflammation. Particulars: murine.

cannabinoid CB2 receptor, sequence (P34972 whole entry): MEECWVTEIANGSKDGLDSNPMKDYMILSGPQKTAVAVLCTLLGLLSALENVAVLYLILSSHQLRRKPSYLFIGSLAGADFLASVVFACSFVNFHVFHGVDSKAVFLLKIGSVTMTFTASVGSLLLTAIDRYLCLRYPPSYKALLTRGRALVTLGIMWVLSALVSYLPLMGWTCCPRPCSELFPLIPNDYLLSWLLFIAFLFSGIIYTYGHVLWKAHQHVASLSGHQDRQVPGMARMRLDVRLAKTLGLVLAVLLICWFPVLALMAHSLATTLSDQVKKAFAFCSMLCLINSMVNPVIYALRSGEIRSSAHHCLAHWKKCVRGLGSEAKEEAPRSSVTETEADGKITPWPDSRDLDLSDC

As for `C=C(C)[C@@H]1CCC(C)=C[C@H]1c1c(O)cc(CCCCC)cc1O` [CBD, cannabidiol], the “affinity for CB2 receptor” value on cannabinoid CB2 receptor is recorded as “low affinity”. The oral bioavailability result in data set [1] is listed as “approximately 6%”.

Take `CCCCCc1cc(O)c2c(c1)OC(C)(C)[C@@H]1CCC(C)=C[C@@H]21` [THC, (−)-(6aR,10aR)-6,6,9-trimethyl-3-pentyl-6a,7,8,10a-tetrahydro-6H-benzo[c]chromen-1-ol]: the peak plasma levels entry (following smoking of the equivalent of 10-15 mg over 5-7 minutes) was “around 100 μg/L”. For the same compound, where the note is “plasma, when cannabis is smoked”, the half-life was 2 h. For the same compound, the Bioavailability (smoking route) is on record as 2-56%.

Take Cannabigerol [CBG]: the “DNBS-induced intestinal inflammation and permeability” value in data set [2] is given as “attenuated”. Further, in data set [2] (DNBS), the “Interleuken-1β (IL-1β) levels” value is recorded as “reduced” and the “myeloperoxidase (MPO) activity” value is “reduced”.
